In patent publication US8642657B2 (Gruenenthal GmbH, priority 2003, dated 2014) one finds melting point and Ki data, which are given here for 25 compounds.

Molecules are shown by their SMILES.

The target in data set [1] is T1, rat VR1 (Rattus norvegicus, UniProt O35433).
T1 construct: expressed in transfected cells
Briefly: 45Ca2+-uptake assay in CHO/VR1 cells, antagonism of capsaicin-stimulated uptake. The format is cell-based. The conditions noted are these: 45Ca2+ uptake stimulated by 50 nM capsaicin.

The target of data set [2] is T1, rat VR1. The data set is described as follows: [3H]resiniferatoxin (RTX) competition binding assay, VR1-transfected CHO cells. In short, it runs like this:
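Competition with [3H]RTX (50-100 pM) ran 60 min at 37° C using whole VR1-induced CHO cells in BSA-containing DPBS, nonspecific defined by 100 nM cold RTX. After centrifugation, pellet radioactivity counted by scintillation; Hill fits gave Ki and cooperativity.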

The mark [3] stands for this setting: competition with [3H]RTX, rat VR1 in CHO cells, read-out: Ki (nM) Binding Affinity.

T1 sequence (O35433 whole entry): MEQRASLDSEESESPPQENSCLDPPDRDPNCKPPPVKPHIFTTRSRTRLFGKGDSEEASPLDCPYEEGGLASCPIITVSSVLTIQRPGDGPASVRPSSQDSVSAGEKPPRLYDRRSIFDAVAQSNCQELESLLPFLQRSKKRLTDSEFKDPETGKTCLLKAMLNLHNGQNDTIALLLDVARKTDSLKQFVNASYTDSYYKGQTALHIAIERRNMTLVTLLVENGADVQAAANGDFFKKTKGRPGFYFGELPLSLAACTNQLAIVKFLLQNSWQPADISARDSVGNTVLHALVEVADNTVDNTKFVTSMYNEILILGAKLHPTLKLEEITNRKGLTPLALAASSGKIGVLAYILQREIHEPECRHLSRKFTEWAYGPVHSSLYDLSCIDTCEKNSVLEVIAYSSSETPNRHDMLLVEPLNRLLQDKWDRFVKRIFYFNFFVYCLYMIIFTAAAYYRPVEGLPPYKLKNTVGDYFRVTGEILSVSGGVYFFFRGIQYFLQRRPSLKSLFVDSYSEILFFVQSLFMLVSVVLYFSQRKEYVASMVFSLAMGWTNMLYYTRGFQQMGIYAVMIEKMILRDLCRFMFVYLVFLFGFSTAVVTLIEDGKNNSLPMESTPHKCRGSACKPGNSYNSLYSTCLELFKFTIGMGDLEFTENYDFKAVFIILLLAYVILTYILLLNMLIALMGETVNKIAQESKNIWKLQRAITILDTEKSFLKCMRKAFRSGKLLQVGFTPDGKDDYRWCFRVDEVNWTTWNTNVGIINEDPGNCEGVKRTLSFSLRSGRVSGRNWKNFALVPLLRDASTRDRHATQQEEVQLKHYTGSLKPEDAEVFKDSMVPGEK

The term melting point denotes the temperature of the solid-liquid transition. The Ki is a measure of affinity in units of concentration, obtained from inhibition or displacement. In turn, `Cc1ccc(CC(CNC(=O)C(C)c2ccc(NS(C)(=O)=O)cc2)COC(=O)C(C)(C)C)cc1C` (stereo not drawn) [5-1, N-[2-(3,4-Dimethylbenzyl)-3-pivaloyloxypropyl]-2-[4-(methylsulfonylamino)phenyl]propionamide] yielded a melting point of 112 to 115 °C. The inhibition constant (Ki) on rat VR1 [1] amounted to 38 nM. On rat VR1 [2] (setting [3]), the inhibition constant Ki stood at 119 nM.

`CC(C(=O)NCC(COC(=O)C(C)(C)C)Cc1ccc(C(C)(C)C)cc1)c1ccc(NS(C)(=O)=O)cc1` (stereo not drawn) [5-2, N-[2-(4-t-Butylbenzyl)-3-pivaloyloxypropyl]-2-[4-(methylsulfonylamino)phenyl]propionamide] gave a melting point of 97 to 100 °C. On rat VR1 [1], this compound gave a Ki of 52 nM. Moreover, the inhibition constant (Ki) at rat VR1 [2] (setting [3]) was found to be 55.2 nM.

Consider `Cc1ccc(CC(CNC(=O)C(C)c2ccc(NS(C)(=O)=O)c(F)c2)COC(=O)C(C)(C)C)cc1C` (stereo not drawn) [5-3, 2-[3-Fluoro-4-(methylsulfonylamino)phenyl]-N-[2-(3,4-dimethylbenzyl)-3-pivaloyloxypropyl]propionamide], for which the melting point lay in the range of 46 to 48 °C. The compound also displayed a Ki at rat VR1 [1] of 10.8 nM. For the same compound, the inhibition constant Ki at rat VR1 [2] (setting [3]) is 33.1 nM.

Regarding `CC(C(=O)NCC(COC(=O)C(C)(C)C)Cc1ccc(C(C)(C)C)cc1)c1ccc(NS(C)(=O)=O)c(F)c1` (stereo not drawn) [5-4, 2-[3-Fluoro-4-(methylsulfonylamino)phenyl]-N-[2-(4-tert-butylbenzyl)-3-pivaloyloxypropyl]propionamide], the melting point is 113 to 115 °C. The compound further displayed an inhibition constant Ki on rat VR1 [1] of 3.24 nM. Also, the Ki at rat VR1 [2] (setting [3]) was found to be 13.6 nM.

As for `COc1cc(C(C)C(=O)NCC(COC(=O)C(C)(C)C)Cc2ccc(C)c(C)c2)ccc1NS(C)(=O)=O` (stereo not drawn) [5-5, N-[2-(3,4-Dimethylbenzyl)-3-pivaloyloxypropyl]-2-[3-methoxy-4-(methylsulfonylamino)phenyl]propionamide], the melting point lay in the range of 54 to 57 °C. On rat VR1 [1], this compound yielded a Ki of 13.6 nM. Further, the Ki at rat VR1 [2] (setting [3]) came to 71.2 nM.

In the case of `Cc1ccc(CC(CNC(=O)C(C)c2ccc(NS(C)(=O)=O)c(Cl)c2)COC(=O)C(C)(C)C)cc1C` (stereo not drawn) [5-7, N-[2-(3,4-Dimethylbenzyl)-3-pivaloyloxypropyl]-2-[3-chloro-4-(methylsulfonylamino)phenyl]propionamide], the melting point fell in the range of 127 to 129 °C. The inhibitory constant (Ki) at rat VR1 [1] was 35.7 nM. Further, on rat VR1 [2] (setting [3]), the Ki was 11.3 nM.

Regarding `CC(C(=O)NCC(COC(=O)C(C)(C)C)Cc1ccc(C(C)(C)C)cc1)c1ccc(NS(C)(=O)=O)c(Cl)c1` (stereo not drawn) [5-8, N-[2-(4-tert-Butylbenzyl)-3-pivaloyloxypropyl]-2-[3-chloro-4-(methylsulfonylamino)phenyl]propionamide], the melting point is 142 to 144 °C. In addition, the Ki at rat VR1 [1] came to 12.3 nM. For the same compound, on rat VR1 [2] (setting [3]), the Ki turned out to be 3.62 nM.

Regarding `C[C@H](C(=O)N[C@@H](COC(=O)C(C)(C)C)Cc1ccccc1)c1ccc(NS(C)(=O)=O)c(F)c1` [6-1, N—[(R)-1-Benzyl-2-(pivaloyloxy)ethyl]-(S)-2-[3-fluoro-4-(methylsulfonylamino)phenyl]propionamide], the melting point worked out at 115 °C. On rat VR1 [1], the Ki is 1470 nM. The inhibitory constant (Ki) at rat VR1 [2] (setting [3]) is 12800 nM.

As for `C[C@H](C(=O)NC[C@H](COC(=O)C(C)(C)C)Cc1ccccc1)c1ccc(NS(C)(=O)=O)c(F)c1` [6-5, N-[(2R)-2-Benzyl-3-(pivaloyloxy)propyl]-(2S)-2-[3-fluoro-4-(methylsulfonylamino)phenyl]propionamide], the melting point lay within 40 to 42 °C. Besides, on rat VR1 [1], the Ki is 8.55 nM. Besides, the inhibition constant (Ki) at rat VR1 [2] (setting [3]) was determined as 43.4 nM.

In the case of `C[C@H](C(=O)NC[C@H](COC(=O)C(C)(C)C)Cc1ccc(C(C)(C)C)cc1)c1ccc(NS(C)(=O)=O)c(F)c1` [6-9, N-[(2R)-2-(4-t-Butylbenzyl)-3-(pivaloyloxy)propyl]-(2S)-2-[3-fluoro-4-(methylsulfonylamino)phenyl]propionamide], the melting point lay in the range of 44 to 46 °C. Moreover, at rat VR1 [1], the affinity corresponds to a Ki of 0.58 nM. This compound also returned an inhibitory constant (Ki) at rat VR1 [2] of 4.24 nM.

Turning to `C[C@H](C(=O)NC[C@@H](COC(=O)C(C)(C)C)Cc1ccc(C(C)(C)C)cc1)c1ccc(NS(C)(=O)=O)c(F)c1` [6-10, N-[(2S)-2-(4-t-Butylbenzyl)-3-(pivaloyloxy)propyl]-(2S)-2-[3-fluoro-4-(methylsulfonylamino)phenyl]propionamide], the melting point was in the range of 43 to 45 °C. In addition, on rat VR1 [1], the inhibitory constant (Ki) came to 10.9 nM. For the same compound, the inhibitory constant (Ki) at rat VR1 [2] was determined as 6.58 nM.

Consider `C[C@@H](C(=O)NC[C@@H](COC(=O)C(C)(C)C)Cc1ccc(C(C)(C)C)cc1)c1ccc(NS(C)(=O)=O)c(F)c1` [6-11, N-[(2S)-2-(4-t-Butylbenzyl)-3-(pivaloyloxy)propyl]-(2R)-2-[3-fluoro-4-(methylsulfonylamino)phenyl]propionamide], for which the melting point lay within 44 to 46 °C. Also, the affinity at rat VR1 [1] corresponds to a Ki of 142 nM. Also, the Ki on rat VR1 [2] (setting [3]) worked out at 63.8 nM.

The compound `C[C@@H](C(=O)NC[C@H](COC(=O)C(C)(C)C)Cc1ccc(C(C)(C)C)cc1)c1ccc(NS(C)(=O)=O)c(F)c1` [6-12, N-[(2R)-2-(4-t-Butylbenzyl)-3-(pivaloyloxy)propyl]-(2R)-2-[3-fluoro-4-(methylsulfonylamino)phenyl]propionamide] yielded a melting point of 43 to 45 °C. The same compound displayed an inhibitory constant (Ki) on rat VR1 [1] of 30.3 nM. Moreover, on rat VR1 [2] (setting [3]), the inhibition constant (Ki) amounted to 53 nM.

Compound `C[C@H](C(=O)NC[C@H](COC(=O)C(C)(C)C)Cc1ccc(C(C)(C)C)cc1)c1ccc(NS(C)(=O)=O)c(Cl)c1` [6-13, N-[(2R)-2-(4-t-Butylbenzyl)-3-(pivaloyloxy)propyl]-(2S)-2-[3-chloro-4-(methylsulfonylamino)phenyl]propionamide] showed a melting point of 61 to 63 °C. Also, on rat VR1 [1], the Ki was 5.23 nM. In addition, on rat VR1 [2] (setting [3]), the inhibition constant (Ki) was found to be 1.83 nM.

Turning to `C[C@H](C(=O)NC[C@@H](COC(=O)C(C)(C)C)Cc1ccc(C(C)(C)C)cc1)c1ccc(NS(C)(=O)=O)c(Cl)c1` [6-14, N-[(2S)-2-(4-t-Butylbenzyl)-3-(pivaloyloxy)propyl]-(2S)-2-[3-chloro-4-(methylsulfonylamino)phenyl]propionamide], the melting point lay within 55 to 57 °C. The Ki at rat VR1 [1] turned out to be 12.1 nM. Further, the Ki at rat VR1 [2] (setting [3]) was 3.29 nM.

Regarding `Cc1ccc(CC(CNC(=O)C(C)(C)c2ccc(NS(C)(=O)=O)cc2)COC(=O)C(C)(C)C)cc1C` (stereo not drawn) [9-1, N-[2-(3,4-Dimethylbenzyl)-3-pivaloyloxypropyl]-2-[4-(methylsulfonylamino)phenyl]-2-methylpropionamide], the melting point lay in the range of 126 to 130 °C. Also, at rat VR1 [1], the affinity corresponds to a Ki of 103 nM. The inhibitory constant (Ki) on rat VR1 [2] (setting [3]) is 372 nM.

Turning to `Cc1ccc(CC(CNC(=O)C(C)(C)c2ccc(NS(C)(=O)=O)c(F)c2)COC(=O)C(C)(C)C)cc1C` (stereo not drawn) [9-2, N-[2-(3,4-Dimethylbenzyl)-3-pivaloyloxypropyl]-2-[3-fluoro-4-(methylsulfonylamino)phenyl]-2-methylpropionamide], the melting point is 53 to 55 °C. Besides, the Ki on rat VR1 [1] was 65.4 nM. Also, the affinity at rat VR1 [2] corresponds to a Ki of 276 nM.

Regarding `COc1cc(C(C)(C)C(=O)NCC(COC(=O)C(C)(C)C)Cc2ccc(C)c(C)c2)ccc1NS(C)(=O)=O` (stereo not drawn) [9-3, N-[2-(3,4-Dimethylbenzyl)-3-pivaloyloxypropyl]-2-[3-methoxy-4-(methylsulfonylamino)phenyl]-2-methylpropionamide], the melting point was 100 to 103 °C. On rat VR1 [1], this compound gave an inhibition constant Ki of 133 nM. On rat VR1 [2] (setting [3]), the Ki stood at 152 nM.

Turning to `Cc1ccc(CCCNC(=O)C(C)(C)c2ccc(NS(C)(=O)=O)cc2)cc1C` [9-4, N-[3-(3,4-Dimethylphenyl)propyl]-2-[4-(methylsulfonylamino)phenyl]-2-methylpropionamide], the melting point was 138 to 139 °C. Further, on rat VR1 [1], the affinity corresponds to a Ki of 573 nM. The compound further returned a Ki at rat VR1 [2] of 1700 nM.

Compound `Cc1ccc(CCCNC(=O)C(C)(C)c2ccc(NS(C)(=O)=O)c(F)c2)cc1C` [9-5, N-[3-(3,4-Dimethylphenyl)propyl]-2-[3-fluoro-4-(methylsulfonylamino)phenyl]-2-methylpropionamide] came in with a melting point of 145 to 146 °C. At rat VR1 [1], this compound yielded a Ki of 418 nM. The compound further returned an inhibition constant (Ki) at rat VR1 [2] of 960 nM.

`COc1cc(C(C)(C)C(=O)NCCCc2ccc(C)c(C)c2)ccc1NS(C)(=O)=O` [9-6, N-[3-(3,4-Dimethylphenyl)propyl]-2-[3-methoxy-4-(methylsulfonylamino)phenyl]-2-methylpropionamide] displayed a melting point of 93 to 95 °C. The same compound returned an inhibition constant Ki at rat VR1 [1] of 366 nM. Moreover, the Ki at rat VR1 [2] came to 838 nM.

Compound `CC(C)(C)c1ccc(CNC(=O)C(C)(C)c2ccc(NS(C)(=O)=O)cc2)cc1` [9-7, N-(4-tert-Butylbenzyl)-2-[4-(methylsulfonylamino)phenyl]-2-methylpropionamide] gave a melting point of 141 to 143 °C. At rat VR1 [1], this compound registered a Ki of 2550 nM. In addition, on rat VR1 [2], the inhibition constant (Ki) worked out at 425 nM.

As for `CC(C)(C)c1ccc(CNC(=O)C(C)(C)c2ccc(NS(C)(=O)=O)c(F)c2)cc1` [9-8, N-(4-tert-Butylbenzyl)-2-[3-fluoro-4-(methylsulfonylamino)phenyl]-2-methylpropionamide], the melting point was in the range of 48 to 51 °C. Moreover, on rat VR1 [1], affinity was put at a Ki of 467 nM. Moreover, the Ki on rat VR1 [2] (setting [3]) was 1070 nM.

On to `Cc1ccc(CC(CNC(=O)C2(c3ccc(NS(C)(=O)=O)cc3)CC2)COC(=O)C(C)(C)C)cc1C` (stereo not drawn) [12-1, N-[2-(3,4-Dimethylbenzyl)-3-pivaloyloxypropyl]-1-[4-(methylsulfonylamino)phenyl]cyclopropanecarboxamide], for which the melting point is 54 to 56 °C. Further, on rat VR1 [1], the inhibitory constant (Ki) turned out to be 197 nM. Also, the inhibitory constant (Ki) at rat VR1 [2] (setting [3]) stood at 396 nM.

`Cc1ccc(CC(CNC(=O)C2(c3ccc(NS(C)(=O)=O)c(F)c3)CC2)COC(=O)C(C)(C)C)cc1C` (stereo not drawn) [12-2, N-[2-(3,4-Dimethylbenzyl)-3-pivaloyloxypropyl]-1-[3-fluoro-4-(methylsulfonylamino)phenyl]cyclopropanecarboxamide] registered a melting point of 55 to 56 °C. On rat VR1 [1], this compound had a Ki of 567 nM. Also, the Ki on rat VR1 [2] (setting [3]) is 1580 nM.
